Assay results reported in ChEMBL document CHEMBL3856187, “Cyclin Dependent Kinase 9 Inhibitors for Cancer Therapy” (J Med Chem, 2016).
pIC50, pKd, pKi: −log10 of the molar value. Blank lines part the entries; values can stand above or below the molecule they belong to.

What was measured:
[1] = target: Cyclin-dependent kinase 1 (Homo sapiens, UniProt P06493); assay: Inhibition of CDK1 (unknown origin)
[2] = target: Receptor-type tyrosine-protein kinase FLT3 (Homo sapiens, UniProt P36888, D835Y); assay: Inhibition of human recombinant N-terminal GST-tagged FLT3 D835Y mutant expressed in baculovirus infected Sf21 insect cells using abltide as substrate
CDK3/Cyclin E [3] = target: T1, CDK3/Cyclin E (Homo sapiens, UniProt Q00526); assay: Inhibition of recombinant human full length C-terminal His6-tagged CDK3/N-terminal GST-tagged cyclin E expressed in baculovirus infected Sf21 insect cells using Histone H1 as substrate
CDK7/Cyclin H/MNAT1 [4] = target: T2, CDK7/Cyclin H/MNAT1 (Homo sapiens, UniProt P50613); assay: Inhibition of recombinant human full length C-terminal His6-tagged CDK7/cyclin H/N-terminal GST-tagged MAT1 expressed in baculovirus infected Sf21 insect cells using cdk7 substrate peptide
[5] = target: T3, Cyclin-dependent kinase 5 (Homo sapiens, UniProt Q00535); assay: Inhibition of human GST-tagged CDK5
[6] = Cytotoxicity against human HeLa cells assessed as decrease in cell viability after 72 hrs by MTT assay; format: toxicity, cell-based
Homo sapiens = assay: Anticancer activity in human AML patient assessed as improvement in remission rate at 50 mg/m2, iv for 1 to 3 days followed by cytarabine dose at 667 mg/m2/day as 72 hrs continuous infusion for 6 to 8 days and mitoxantrone at 40 mg/m2 administered on day 9; format: functional
[7] = target: Cyclin-dependent kinase 2 (Homo sapiens, UniProt P24941); assay: Binding affinity to full length human CDK2 (1 to 298 residues) expressed in bacterial expression system by KINOMEscan competition assay
[8] = target: Cyclin-dependent kinase 7 (Homo sapiens, UniProt P50613); assay: Binding affinity to full length human CDK7 (1 to 344 residues) expressed in mammalian expression system by KINOMEscan competition assay
[9] = target: T4, Cyclin-dependent kinase 9 (Homo sapiens, UniProt P50750); assay: Binding affinity to full length human CDK9 (1 to 372 residues) expressed in bacterial expression system by KINOMEscan competition assay
[10] = target: T4, Cyclin-dependent kinase 9
Description: Inhibition of CDK9 (unknown origin)

CDK9/cyclin T1 [11] = target: T5, CDK9/cyclin T1 (Homo sapiens, UniProt P50750); assay: Inhibition of recombinant human His-tagged CDK9/cyclin T1 expressed in baculovirus infected sf9 cells using (biotinyl-Ahx-(Tyr-Ser-ProThr-Ser-Pro-Ser)4-NH2 as substrate after 45 mins by [gamma-32P]ATP based microbeta scintillation counting analysis
[12] = target: T6, Cyclin-dependent kinase 2/cyclin E1 (Homo sapiens, UniProt P24941); assay: Inhibition of recombinant human His6-tagged CDK2/cyclin E expressed in baculovirus infected sf9 cells using histone H1 susbtrate in presence of [gamma32P]ATP after 10 mins by scintillation counting method
[13] = target: Tyrosine-protein kinase JAK2 (Homo sapiens, UniProt O60674); assay: Inhibition of human recombinant GST-tagged JAK2 expressed in baculovirus expression system
[14] = target: T3, Cyclin-dependent kinase 5; assay: Inhibition of CDK5 (unknown origin)
[15] = target: T4, Cyclin-dependent kinase 9; assay: Inhibition of human CDK9 (unknown origin)
[16] = target: Cyclin-dependent kinase 3 (Homo sapiens, UniProt Q00526); assay: Inhibition of CDK3 (unknown origin)
[17] = target: Cyclin-dependent kinase 4 (Homo sapiens, UniProt P11802); assay: Inhibition of CDK4 (unknown origin)
[18] = target: Cyclin-dependent kinase 1/cyclin B1 (Homo sapiens, UniProt P06493); format: protein-complex assay
Description: Inhibition of CDK1/cyclin B (unknown origin)

CDK2/Cyclin A2 [19] = target: T7, CDK2/Cyclin A2 (Homo sapiens, UniProt P24941); assay: Inhibition of CDK2/cyclin A (unknown origin); format: protein-complex assay
[20] = target: Cyclin-dependent kinase 4/G1/S-specific cyclin-E1 (Homo sapiens, UniProt P11802); assay: Inhibition of CDK4/cyclin E (unknown origin); format: protein-complex assay
[21] = target: T8, Cyclin-dependent kinase 5/CDK5 activator 1 (Homo sapiens, UniProt Q00535); assay: Inhibition of CDK5/p25 (unknown origin); format: protein-complex assay
[22] = target: Cyclin-dependent kinase 7/ cyclin H (Homo sapiens, UniProt P50613); assay: Inhibition of CDK7/cyclin H (unknown origin); format: protein-complex assay
CDK8/Cyclin C = CDK8/Cyclin C (Homo sapiens, UniProt P49336); assay: Inhibition of CDK8/cyclin C (unknown origin) using RBER-CHKStide as substrate after 60 mins in presence of 33P-ATP by microbeta scintillation counting analysis; format: protein-complex assay
CDK7/Cyclin H/MNAT1 [23] = target: T2, CDK7/Cyclin H/MNAT1; assay: Inhibition of recombinant human full length C-terminal His6-tagged CDK7/cyclin H/N-terminal GST-tagged MAT1 expressed in baculovirus infected Sf21 insect cells using CDK7/9ptide as substrate after 60 mins in presence of 33P-ATP by microbeta scintillation counting analysis
[24] = target: T6, Cyclin-dependent kinase 2/cyclin E1; assay: Inhibition of human recombinant GST-tagged CDK2/cyclin E expressed in Sf9 insect cells using biotin-Ttds-YISPLKSPYKISEG as substrate preincubated for 15 mins followed by substrate addition measured after 25 mins by TR-FRET assay
[25] = Antiproliferative activity against human HeLa cells after 4 days by crystal violet staining based assay; format: functional, cell-based; conditions: 96 h
[26] = Antiproliferative activity against human H460 cells after 4 days by crystal violet staining based assay; format: functional, cell-based; conditions: NCI-H460, 96 h
[27] = Antiproliferative activity against human DU145 cells after 4 days by crystal violet staining based assay; format: functional, cell-based; conditions: DU-145, 96 h
[28] = Antiproliferative activity against human Caco2 cells after 4 days by crystal violet staining based assay; format: functional, cell-based; conditions: Caco-2, 96 h
[29] = Antiproliferative activity against mouse B16F10 cells after 4 days by crystal violet staining based assay; format: functional, cell-based; conditions: B16-F10, 96 h
[30] = Antiproliferative activity against human HeLa/MaTu/ADR cells after 4 days by crystal violet staining based assay; format: functional, cell-based; conditions: 96 h
[31] = Inhibition of M-phase starfish oocytes CDK1/cyclin B after 30 mins by [gamma-33P]ATP based scintillation counting analysis; parameters: species or system Asteroidea
[32] = target: T8, Cyclin-dependent kinase 5/CDK5 activator 1; assay: Inhibition of human recombinant CDK5/p25 expressed in baculovirus infected Sf9 insect cells after 30 mins by [gamma-33P]ATP based scintillation counting analysis
CDK2/Cyclin A2 [33] = target: T7, CDK2/Cyclin A2; assay: Inhibition of recombinant human N-terminal GST-tagged CDK2/cyclin A expressed in baculovirus expression system using retinoblastoma (792 to 928 residues) as substrate after 30 mins by gamma32P-ATP based scintillation counting analysis
[34] = target: T6, Cyclin-dependent kinase 2/cyclin E1; assay: Inhibition of human CDK2/cyclin E expressed in baculovirus infected Sf9 insect cells using retinoblastoma (792 to 928 residues) as substrate after 30 mins by gamma32P-ATP based scintillation counting analysis
[35] = target: T9, Cyclin-dependent kinase 4/cyclin D1 (Homo sapiens, UniProt P11802); assay: Inhibition of human N-terminal GST-tagged CDK4/cyclin D1 expressed in baculovirus infected Sf9 insect cells using retinoblastoma (792 to 928 residues) as substrate after 30 mins by gamma32P-ATP based scintillation counting analysis
[36] = Inhibition of CDK6/cyclin D (unknown origin); parameters: species or system Homo sapiens
CDK7/Cyclin H/MNAT1 [37] = target: T2, CDK7/Cyclin H/MNAT1; assay: Inhibition of CDK7/cyclin H/MAT1 (unknown origin); format: protein-complex assay
CDK9/cyclin T1 [38] = target: T5, CDK9/cyclin T1; assay: Inhibition of human recombinant CDK9/cyclin T expressed in baculovirus infected Sf9 insect cells using pRB (773 to 928 residues) as substrate after 30 mins by [gamma-33P]ATP based scintillation counting analysis
[39] = target: T6, Cyclin-dependent kinase 2/cyclin E1; assay: Inhibition of CDK2/cyclin E (unknown origin); format: protein-complex assay
CDK3/Cyclin E [40] = target: T1, CDK3/Cyclin E; assay: Inhibition of CDK3/cyclin E (unknown origin); format: protein-complex assay
[41] = target: T8, Cyclin-dependent kinase 5/CDK5 activator 1; assay: Inhibition of CDK5/p35 (unknown origin); format: protein-complex assay
CDK6/cyclin D3 = CDK6/cyclin D3 (Homo sapiens, UniProt Q00534); assay: Inhibition of CDK6/cyclin D3 (unknown origin); format: protein-complex assay
[42] = target: T9, Cyclin-dependent kinase 4/cyclin D1; assay: Inhibition of recombinant CDK4/cyclin D1 (unknown origin); format: protein-complex assay

T8 sequence (Q00535 whole entry): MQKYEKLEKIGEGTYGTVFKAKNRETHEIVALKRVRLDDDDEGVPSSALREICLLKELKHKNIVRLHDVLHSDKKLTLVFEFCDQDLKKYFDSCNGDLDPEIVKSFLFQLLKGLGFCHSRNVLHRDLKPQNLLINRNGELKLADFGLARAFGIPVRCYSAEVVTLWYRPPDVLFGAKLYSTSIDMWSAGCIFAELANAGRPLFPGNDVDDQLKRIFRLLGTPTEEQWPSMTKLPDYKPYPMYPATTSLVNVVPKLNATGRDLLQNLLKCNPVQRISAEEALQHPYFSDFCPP
T8 sequence (Q15078 whole entry, further chain): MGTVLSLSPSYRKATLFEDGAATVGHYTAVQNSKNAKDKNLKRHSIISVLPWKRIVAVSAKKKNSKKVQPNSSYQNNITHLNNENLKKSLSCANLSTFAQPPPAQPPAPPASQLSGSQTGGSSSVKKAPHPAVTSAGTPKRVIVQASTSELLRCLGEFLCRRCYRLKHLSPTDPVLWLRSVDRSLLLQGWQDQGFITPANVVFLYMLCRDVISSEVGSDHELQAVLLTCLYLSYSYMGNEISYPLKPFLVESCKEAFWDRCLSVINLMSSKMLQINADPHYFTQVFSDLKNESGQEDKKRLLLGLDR
T2 sequence (P51946 whole entry): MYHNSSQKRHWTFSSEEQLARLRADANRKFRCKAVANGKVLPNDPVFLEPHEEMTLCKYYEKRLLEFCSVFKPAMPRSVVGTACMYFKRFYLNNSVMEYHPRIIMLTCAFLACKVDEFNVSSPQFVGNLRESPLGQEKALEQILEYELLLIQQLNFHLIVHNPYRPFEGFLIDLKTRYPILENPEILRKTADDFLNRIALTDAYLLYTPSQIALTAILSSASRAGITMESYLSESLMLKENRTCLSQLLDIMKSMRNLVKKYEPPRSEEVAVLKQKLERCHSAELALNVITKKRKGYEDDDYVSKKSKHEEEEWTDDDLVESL
T2 sequence (P50613 whole entry): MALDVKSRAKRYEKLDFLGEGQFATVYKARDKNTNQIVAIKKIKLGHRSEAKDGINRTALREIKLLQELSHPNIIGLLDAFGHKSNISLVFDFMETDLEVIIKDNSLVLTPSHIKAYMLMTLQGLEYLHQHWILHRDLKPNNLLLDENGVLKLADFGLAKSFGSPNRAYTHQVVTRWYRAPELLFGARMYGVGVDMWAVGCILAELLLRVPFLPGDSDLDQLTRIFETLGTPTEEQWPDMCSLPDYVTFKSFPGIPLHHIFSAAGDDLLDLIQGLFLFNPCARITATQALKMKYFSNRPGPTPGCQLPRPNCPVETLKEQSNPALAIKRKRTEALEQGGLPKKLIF
T2 sequence (P51948 whole entry, further chain): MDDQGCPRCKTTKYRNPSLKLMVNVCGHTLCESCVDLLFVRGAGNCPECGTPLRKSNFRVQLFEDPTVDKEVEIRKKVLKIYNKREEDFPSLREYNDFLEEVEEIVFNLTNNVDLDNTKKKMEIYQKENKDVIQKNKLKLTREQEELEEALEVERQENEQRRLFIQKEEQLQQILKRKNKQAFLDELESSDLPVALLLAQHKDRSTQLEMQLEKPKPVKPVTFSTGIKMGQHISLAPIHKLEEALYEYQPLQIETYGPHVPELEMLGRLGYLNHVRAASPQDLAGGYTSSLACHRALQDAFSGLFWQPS
Chain of Cyclin-dependent kinase 1/cyclin B1 (P06493 whole entry): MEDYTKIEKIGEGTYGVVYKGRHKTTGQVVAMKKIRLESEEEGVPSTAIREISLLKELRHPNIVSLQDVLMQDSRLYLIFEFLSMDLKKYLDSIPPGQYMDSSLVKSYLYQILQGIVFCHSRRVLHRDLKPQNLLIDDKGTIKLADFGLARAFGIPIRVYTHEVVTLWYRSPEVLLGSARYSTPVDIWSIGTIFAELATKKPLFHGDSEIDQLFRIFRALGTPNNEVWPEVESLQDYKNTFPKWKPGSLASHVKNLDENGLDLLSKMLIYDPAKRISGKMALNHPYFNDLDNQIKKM
Chain of Cyclin-dependent kinase 1/cyclin B1 (P14635 whole entry, further chain): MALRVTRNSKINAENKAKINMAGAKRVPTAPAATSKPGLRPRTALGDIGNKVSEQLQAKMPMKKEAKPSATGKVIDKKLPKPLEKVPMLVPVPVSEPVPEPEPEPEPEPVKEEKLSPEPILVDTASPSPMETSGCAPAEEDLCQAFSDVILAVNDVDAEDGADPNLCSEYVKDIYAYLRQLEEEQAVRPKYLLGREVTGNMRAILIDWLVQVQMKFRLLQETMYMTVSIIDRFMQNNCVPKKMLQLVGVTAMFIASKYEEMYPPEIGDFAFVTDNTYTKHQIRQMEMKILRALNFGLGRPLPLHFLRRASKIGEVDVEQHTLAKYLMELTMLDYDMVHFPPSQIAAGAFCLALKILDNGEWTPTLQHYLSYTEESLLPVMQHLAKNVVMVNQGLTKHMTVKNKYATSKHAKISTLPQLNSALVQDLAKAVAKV
T4 sequence (P50750 whole entry, the tested form may be a part): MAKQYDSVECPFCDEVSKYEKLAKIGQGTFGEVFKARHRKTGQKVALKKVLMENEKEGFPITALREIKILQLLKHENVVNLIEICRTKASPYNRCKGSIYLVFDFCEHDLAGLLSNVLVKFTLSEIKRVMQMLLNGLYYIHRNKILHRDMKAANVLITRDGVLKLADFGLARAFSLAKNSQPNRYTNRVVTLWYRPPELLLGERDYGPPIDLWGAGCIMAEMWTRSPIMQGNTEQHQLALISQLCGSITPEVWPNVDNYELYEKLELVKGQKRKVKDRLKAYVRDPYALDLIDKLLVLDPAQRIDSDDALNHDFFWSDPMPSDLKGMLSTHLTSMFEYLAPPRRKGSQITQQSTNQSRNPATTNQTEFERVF
T5 sequence (O60563 whole entry): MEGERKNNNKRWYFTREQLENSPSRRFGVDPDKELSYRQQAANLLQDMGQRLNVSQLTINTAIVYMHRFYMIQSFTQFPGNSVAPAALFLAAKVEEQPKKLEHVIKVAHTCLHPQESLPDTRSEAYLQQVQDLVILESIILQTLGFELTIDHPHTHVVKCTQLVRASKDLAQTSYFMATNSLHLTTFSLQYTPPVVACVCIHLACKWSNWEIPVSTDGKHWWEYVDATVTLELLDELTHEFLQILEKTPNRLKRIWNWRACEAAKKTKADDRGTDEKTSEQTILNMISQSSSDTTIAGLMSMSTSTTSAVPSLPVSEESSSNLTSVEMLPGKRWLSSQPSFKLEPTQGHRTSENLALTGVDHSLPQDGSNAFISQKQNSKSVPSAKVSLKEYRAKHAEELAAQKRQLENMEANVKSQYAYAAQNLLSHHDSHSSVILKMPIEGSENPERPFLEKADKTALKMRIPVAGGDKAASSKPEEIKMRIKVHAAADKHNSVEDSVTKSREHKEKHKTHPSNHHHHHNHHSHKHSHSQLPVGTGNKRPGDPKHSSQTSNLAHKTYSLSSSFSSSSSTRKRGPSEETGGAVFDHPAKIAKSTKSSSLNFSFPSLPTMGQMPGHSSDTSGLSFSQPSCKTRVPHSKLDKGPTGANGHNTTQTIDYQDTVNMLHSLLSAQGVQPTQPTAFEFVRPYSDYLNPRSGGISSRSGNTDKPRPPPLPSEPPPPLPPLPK
T5 sequence (P50750 whole entry): as the sequence (P50750 whole entry, the tested form may be a part) above
T3 sequence (Q00535 whole entry): as the sequence (Q00535 whole entry) above
Chain of Cyclin-dependent kinase 7/ cyclin H (P51946 whole entry): as the sequence (P51946 whole entry) above
Chain of Cyclin-dependent kinase 7/ cyclin H (P50613 whole entry): as the sequence (P50613 whole entry) above
Chain of Cyclin-dependent kinase 1 (P06493 whole entry): as the sequence (P06493 whole entry) above
T1 sequence (P24864 whole entry): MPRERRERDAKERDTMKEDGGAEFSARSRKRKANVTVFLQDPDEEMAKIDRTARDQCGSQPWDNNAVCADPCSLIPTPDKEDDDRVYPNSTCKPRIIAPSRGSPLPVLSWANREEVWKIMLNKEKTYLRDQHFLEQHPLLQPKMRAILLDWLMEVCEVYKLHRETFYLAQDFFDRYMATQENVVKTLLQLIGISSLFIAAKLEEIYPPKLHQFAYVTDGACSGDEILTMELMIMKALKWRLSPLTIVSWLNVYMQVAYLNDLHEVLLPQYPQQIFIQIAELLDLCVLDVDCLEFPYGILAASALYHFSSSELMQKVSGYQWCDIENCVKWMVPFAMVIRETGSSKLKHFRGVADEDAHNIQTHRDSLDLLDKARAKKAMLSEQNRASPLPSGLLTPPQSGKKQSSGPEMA
T1 sequence (Q00526 whole entry): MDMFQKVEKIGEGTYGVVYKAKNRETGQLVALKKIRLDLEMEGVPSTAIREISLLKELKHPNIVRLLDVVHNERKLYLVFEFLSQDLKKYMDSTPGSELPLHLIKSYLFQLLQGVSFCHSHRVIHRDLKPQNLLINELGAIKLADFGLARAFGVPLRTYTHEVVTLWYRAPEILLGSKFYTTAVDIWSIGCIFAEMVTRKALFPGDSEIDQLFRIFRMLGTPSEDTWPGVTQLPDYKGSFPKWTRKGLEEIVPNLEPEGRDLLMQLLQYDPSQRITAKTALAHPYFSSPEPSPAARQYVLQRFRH
Chain of Cyclin-dependent kinase 7 (P50613 whole entry, the tested form may be a part): as the sequence (P50613 whole entry) above

Structure (SMILES): CN1C/C=C/CCOc2cccc(c2)-c2ccnc(n2)Nc2cccc(c2)C1 [ZOTIRACICLIB]
pIC50 [1]: 7.82 to 8.52
pIC50 [2]: 7.68
pIC50 (CDK3/Cyclin E [3]): 7.82 to 8.52
pIC50 (CDK7/Cyclin H/MNAT1 [4]): 7.82 to 8.52
pIC50 [5]: 7.82 to 8.52

Structure (SMILES): CN1CC[C@H](c2c(O)cc(O)c3c(=O)cc(-c4ccccc4Cl)oc23)[C@H](O)C1 [ALVOCIDIB]
CC50 at 72 h [6]: 120 nM
Activity (Homo sapiens): 67 - 80%

pKd [7]: 6.27
pKd [8]: 8.60
pKd [9]: 8.39
pIC50 [10]: 8.85
Structure (SMILES): Cc1ccc([N+](=O)[O-])cc1S(=O)(=O)N(C)/N=C/c1cnc2ccc(Br)cn12

pKi (CDK9/cyclin T1 [11]): 9.40
Structure (SMILES): Cc1c(-c2ccnc(Nc3ccc(N4CCNCC4)cc3)n2)sc(=O)n1C

pIC50 [12]: 5.59
pIC50 [13]: 5.77
Structure (SMILES): O=C1CC/C=C\COc2cccc(c2)-c2ccnc(n2)Nc2cccc(c2)N1

pKi [1]: < 6.00
pKi [14]: < 6.00
pKi [15]: 7.77
pKi [7]: < 6.00
pKi [16]: < 6.00
pKi [17]: < 6.00
Structure (SMILES): COc1ccccc1-c1cc(Nc2ccc(F)c(NS(C)(=O)=O)c2)ncn1

Structure (SMILES): CC[C@H](Nc1nc(NCc2cnc(C)cc2C)c2ncn(C(C)C)c2n1)[C@@H](C)O [CYC-065]
pIC50 [18]: 6.24
pIC50 (CDK2/Cyclin A2 [19]): 8.30
pIC50 [20]: 6.63
pIC50 [21]: 7.68
pIC50 [22]: 6.71

pIC50 (CDK8/Cyclin C): 7.80
pIC50 (CDK7/Cyclin H/MNAT1 [23]): 6.61
Structure (SMILES): CC(C)c1c2cc(-c3ccnc(N[C@H]4CC[C@H](NC5CCOCC5)CC4)n3)ccc2nn1C

pIC50 [24]: 6.59
Structure (SMILES): CS(=N)(=O)Cc1cccc(Nc2ncnc(-c3ccc(F)cc3OCc3cccc(F)c3)n2)c1 (stereo unspecified)
pIC50 [25]: 6.77
pIC50 [26]: 6.96
pIC50 [27]: 6.96
pIC50 [28]: 7.10
pIC50 [29]: 7.00
pIC50 [30]: 7.00

pIC50 [32]: < 5.00
Structure (SMILES): COc1ccnc2c1c(-c1ccnc(N)n1)cn2C [MERIOLIN 9]
pIC50 [31]: < 5.00

pIC50 [18]: 7.10
pIC50 (CDK2/Cyclin A2 [33]): 6.65
pIC50 [34]: 5.60
pIC50 [35]: 7.20
pIC50 [36]: 6.40
pIC50 (CDK7/Cyclin H/MNAT1 [37]): 5.54
Structure (SMILES): CN1CC[C@@H](c2c(O)cc(O)c3c(=O)cc(-c4ccccc4Cl)oc23)[C@@H]1CO

pIC50 (CDK9/cyclin T1 [38]): 8.22
Structure (SMILES): CCCOc1ccnc2[nH]cc(-c3ccnc(N)n3)c12 [MERIOLIN 5]
pIC50 [31]: 8.15

pIC50 [18]: 7.26 to 8.70
pIC50 [39]: 7.26 to 8.70
pIC50 (CDK3/Cyclin E [40]): 7.26 to 8.70
pIC50 [41]: 7.26 to 8.70
pIC50 (CDK6/cyclin D3): 7.26 to 8.70
pIC50 [22]: 7.26 to 8.70
pIC50 [42]: 7.26 to 8.70
Structure (SMILES): COCCN1CCN(Cc2ccc(-c3n[nH]c4c3C(=O)c3c(NC(=O)NN5CCOCC5)cccc3-4)cc2)CC1 [RGB-286638]
